pEC50: −log10 of the molar value.
Target: T1, human Kv1.3 ion channel (Homo sapiens, UniProt P22001)
T1 construct: Human Jurkat cells (which endogenously express hKv1.3) or Chinese Hamster Ovary (CHO) cells stably transfected with hKv1.3 were used; endogenous in cells; host or cells: Human Jurkat cells (endogenous) or CHO cells stably transfected with hKv1.3
Test: Inhibition of Kv1.3 currents, planar patch clamp
Type: cell-based
Conditions: Human Jurkat cells or CHO cells stably transfected with hKv1.3; averaged dose response data from 3 or more cells
Method: Potency of compounds to inhibit the human Kv1.3 ion channel was determined as follows:
EC50 values for inhibition of Kv1.3 currents were determined by the method according to Schmitz et al (2005) Molecular Pharmacology 68, 1254-1270 with the following differences: • 1. Human Jurkat cells (which endogenously express hKv1.3) or Chinese Hamster Ovary (CHO) cells stably transfected with hKv1.3 were used in place of transfected rat L929 cells. • 2. All electrophysiology was performed using planar patch clamp (Port-A-Patch, Nanion Technologies Gmbh, Munich) in contrast to conventional patch clamp. • 3. EC50 values shown were determined from averaged dose response data obtained from 3 or more cells.

T1 sequence (P22001 whole entry): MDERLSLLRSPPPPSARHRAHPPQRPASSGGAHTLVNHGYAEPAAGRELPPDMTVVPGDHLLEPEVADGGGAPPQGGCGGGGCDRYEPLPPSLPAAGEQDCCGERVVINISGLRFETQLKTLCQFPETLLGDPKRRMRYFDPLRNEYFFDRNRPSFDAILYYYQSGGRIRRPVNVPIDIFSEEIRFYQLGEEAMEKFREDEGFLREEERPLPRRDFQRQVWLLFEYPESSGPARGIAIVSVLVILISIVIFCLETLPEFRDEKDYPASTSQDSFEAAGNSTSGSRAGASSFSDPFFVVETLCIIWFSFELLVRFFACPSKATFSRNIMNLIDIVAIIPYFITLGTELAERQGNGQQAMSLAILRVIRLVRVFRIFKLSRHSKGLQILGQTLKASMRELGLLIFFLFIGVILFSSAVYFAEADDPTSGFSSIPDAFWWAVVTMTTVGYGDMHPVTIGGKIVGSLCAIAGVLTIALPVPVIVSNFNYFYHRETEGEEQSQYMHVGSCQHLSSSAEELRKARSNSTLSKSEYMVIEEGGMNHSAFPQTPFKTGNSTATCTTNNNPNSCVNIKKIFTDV

SMILES: COc1c(Cl)c(C)c(C(C)=O)c(OCCN2CCOCC2)c1OCCCc1ccc(F)cc1 [Example 1f, 1-(3-Chloro-5-(3-(4-fluorophenyl)propoxy)-4-methoxy-2-methyl-6-(2-morpholinoethoxy)phenyl)ethanone]
- pEC50: 6.82 to 7.30

SMILES: COc1c(Cl)c(C)c(C(C)=O)c(OCCNC2CCCC2)c1OCCCc1ccc(F)cc1 [Example 2, 1-(3-Chloro-6-(cyclopentylamino)ethoxy)-5-(3-(4-fluorophenyl)propoxy-4-methoxy-2-methylphenyl)ethanone]
- pEC50: > 7.30

SMILES: COc1c(C)c(C)c(C(C)=O)c(OCCN2CCOCC2)c1OCCCc1ccc(F)cc1 [Example 3c, 1-[3-[3-(4-Fluoro-phenyl)-propoxy]-4-methoxy-5,6-dimethyl-2-(2-morpholin-4-yl-ethoxy)-phenyl]-ethanone]
- pEC50: 6.82 to 7.30

SMILES: COc1c(C)c(C)c(C(C)=O)c(OCCc2ccccn2)c1OCCC(C)c1ccc(F)cc1 (stereo not drawn) [Example 4f, 1-[3-[3-(4-Fluoro-phenyl)-butoxy]-4-methoxy-5,6-dimethyl-2-(2-pyridin-2-yl-ethoxy)-phenyl]-ethanone]
- pEC50: > 7.30

SMILES: COc1c(C)c(C)c(C(C)=O)c(OCCN2CCOCC2)c1OCCC(C)c1ccc(F)cc1 (stereo not drawn) [Example 5, 1-[3-[3-(4-Fluoro-phenyl)-butoxy]-4-methoxy-5,6-dimethyl-2-(2-morpholin-4-yl-ethoxy)-phenyl]-ethanone]
- pEC50: > 7.30

SMILES: COc1c(C)c(C)c(C(C)=O)c(OCCNC2CCCC2)c1OCCC(C)c1ccc(F)cc1 (stereo not drawn) [Example 6, 1-{2-(2-Cyclopentylamino-ethoxy)-3-[3-(4-fluoro-phenyl)-butoxy]-4-methoxy-5,6-dimethyl-phenyl}-ethanone]
- pEC50: > 7.30

SMILES: COc1c(Cl)c(C)c(C(C)=O)c(OCCNC2CCCC2)c1OCCC(C)c1ccc(F)cc1 (stereo not drawn) [Example 9, 1-[3-Chloro-6-(2-cyclopentylamino-ethoxy)-5-[3-(4-fluoro-phenyl)-butoxy]-4-methoxy-2-methyl-phenyl]-ethanone]
- pEC50: 6.82 to 7.30

SMILES: COc1c(Cl)c(C)c(C(C)=O)c(OCCN2CCCCC2)c1OCCC(C)c1ccc(F)cc1 (stereo not drawn) [Example 10, 1-[3-Chloro-5-[3-(4-fluoro-phenyl)-butoxy]-4-methoxy-2-methyl-6-(2-piperidin-1-yl-ethoxy)-phenyl]-ethanone]
- pEC50: > 7.30

SMILES: COc1c(Cl)c(C)c(C(C)=O)c(OCCN2CCC(F)CC2)c1OCCC(C)c1ccc(F)cc1 (stereo not drawn) [Example 11, 1-{3-Chloro-5-[3-(4-fluoro-phenyl)-butoxy]-6-[2-(4-fluoro-piperidin-1-yl)-ethoxy]-4-methoxy-2-methyl-phenyl}-ethanone]
- pEC50: 6.82 to 7.30

SMILES: COc1c(Cl)c(C)c(C(C)=O)c(OCCN2CC[C@@H](F)C2)c1OCCC(C)c1ccc(F)cc1 (stereo partly drawn) [Example 12, 1-{3-Chloro-5-[3-(4-fluoro-phenyl)-butoxy]-6-[2-(R-3-fluoro-pyrrolidin-1-yl)-ethoxy]-4-methoxy-2-methyl-phenyl}-ethanone]
- pEC50: > 7.30

SMILES: COc1c(Cl)c(C)c(C(C)=O)c(OCc2ccccn2)c1OCCC(C)c1ccc(F)cc1 (stereo not drawn) [Example 13, 1-[3-Chloro-5-[3-(4-fluoro-phenyl)-butoxy]-4-methoxy-2-methyl-6-(pyridin-2-ylmethoxy)-phenyl]-ethanone]
- pEC50: 6.52 to 6.82

SMILES: COc1c(Cl)c(C)c(C(C)=O)c(OCCN2CCC(O)CC2)c1OCCC(C)c1ccc(F)cc1 (stereo not drawn) [Example 14, 1-{3-Chloro-5-[3-(4-fluoro-phenyl)-butoxy]-6-[2-(4-hydroxy-piperidin-1-yl)-ethoxy]-4-methoxy-2-methyl-phenyl}-ethanone]
- pEC50: 6.82 to 7.30

SMILES: COc1c(Cl)c(C)c(C(C)=O)c(OCCN2CCC(=O)CC2)c1OCCC(C)c1ccc(F)cc1 (stereo not drawn) [Example 15, 1-{3-Chloro-5-[3-(4-fluoro-phenyl)-butoxy]-6-[2-(4-oxo-piperidin-1-yl)-ethoxy]-4-methoxy-2-methyl-phenyl}-ethanone]
- pEC50: > 7.30

SMILES: COc1c(Cl)c(C)c(C(C)=O)c(OCCN2CCC(F)(F)CC2)c1OCCC(C)c1ccc(F)cc1 (stereo not drawn) [Example 16, 1-{3-Chloro-6-[2-(4,4-difluoro-piperidin-1-yl)-ethoxy]-5-[3-(4-fluoro-phenyl)-butoxy]-4-methoxy-2-methyl-phenyl}-ethanone]
- pEC50: 6.82 to 7.30

SMILES: COc1c(Cl)c(C)c(C(C)=O)c(OCCN2CCCC(F)(F)C2)c1OCCC(C)c1ccc(F)cc1 (stereo not drawn) [Example 17, 1-{3-Chloro-6-[2-(3,3-difluoro-piperidin-1-yl)-ethoxy]-5-[3-(4-fluoro-phenyl)-butoxy]-4-methoxy-2-methyl-phenyl}-ethanone]
- pEC50: > 7.30

SMILES: COc1c(Cl)c(C)c(C(C)=O)c(OCCOc2cnccn2)c1OCCC(C)c1ccc(F)cc1 (stereo not drawn) [Example 18b, 1-{3-Chloro-5-[3-(4-fluoro-phenyl)-butoxy]-4-methoxy-2-methyl-6-[2-(pyrazin-2-yloxy)-ethoxy]-phenyl}-ethanone]
- pEC50: > 7.30

SMILES: COc1c(Cl)c(C)c(C(C)=O)c(OCCn2cncn2)c1OCCC(C)c1ccc(F)cc1 (stereo not drawn) [Example 19, 1-[3-Chloro-5-[3-(4-fluorophenyl)-butoxy]-4-methoxy-2-methyl-6-(2-[1,2,4]-triazol-1-yl-ethoxy)-phenyl]-ethanone]
- pEC50: 6.82 to 7.30

SMILES: COc1c(Cl)c(C)c(C(C)=O)c(OCCN2CC(F)(F)C2)c1OCCC(C)c1ccc(F)cc1 (stereo not drawn) [Example 20, 1-{3-Chloro-6-[2-(3,3-difluoro-azetidin-1-yl)-ethoxy]-5-[3-(4-fluoro-phenyl)-butoxy]-4-methoxy-2-methyl-phenyl}-ethanone]
- pEC50: 6.82 to 7.30

SMILES: COc1c(Cl)c(C)c(C(C)=O)c(OCCCN2CCOCC2)c1OCCC(C)c1ccc(F)cc1 (stereo not drawn) [Example 22b, 1-[3-Chloro-5-[3-(4-fluoro-phenyl)-butoxy]-4-methoxy-2-methyl-6-(3-morpholin-4-yl-propoxy)-phenyl]-ethanone]
- pEC50: > 7.30

SMILES: COc1c(Cl)c(C)c(C(C)=O)c(OCCCN2CCS(=O)(=O)CC2)c1OCCC(C)c1ccc(F)cc1 (stereo not drawn) [Example 23, 1-{3-Chloro-6-[3-(1,1-dioxo-thiomorpholin-4-yl)-propoxy]-5-[3-(4-fluoro-phenyl)-butoxy]-4-methoxy-2-methyl-phenyl}-ethanone]
- pEC50: > 7.30

SMILES: COc1c(Cl)c(C)c(C(C)=O)c(OCCCN2CC[S+]([O-])CC2)c1OCCC(C)c1ccc(F)cc1 (stereo not drawn) [Example 24, 1-{3-Chloro-5-[3-(4-fluoro-phenyl)-butoxy]-4-methoxy-2-methyl-6-[3-(1-oxo-thiomorpholin-4-yl)-propoxy]-phenyl}-ethanone]
- pEC50: 6.82 to 7.30

SMILES: COc1c(Cl)c(C)c(C(C)=O)c(OCCN2CCOCC2)c1CCCCc1ccccc1 [Example 26b, 1-(3-Chloro-4-methoxy-2-methyl-6-(2-morpholinoethoxy)-5-5(4-phenylbutyl)phenyl)ethanone]
- pEC50: > 7.30

SMILES: COc1c(Cl)c(C)c(C(C)=O)c(OCCc2ccccn2)c1CCCCc1ccccc1 [Example 27, 1-(3-Chloro-4-methoxy-2-methyl-5-(4-phenylbutyl)-6-(2-(pyridine-2-yl)ethoxy)phenyl)ethanone]
- pEC50: > 7.30

SMILES: COc1c(Cl)c(C)c(C(C)=O)c(OCCN2CCOCC2)c1CCCC(C)c1ccc(F)cc1 (stereo not drawn) [Example 31b, 1-(3-Chloro-5-(4-(4-fluorophenyl)pentyl)-4-methoxy-2-methyl-6-(2-morpholinoethoxy)phenyl)ethanone]
- pEC50: 6.82 to 7.30

SMILES: COc1c(Cl)c(C)c(C(C)=O)c(OCCc2ccccn2)c1CCCC(C)c1ccc(F)cc1 (stereo not drawn) [Example 32, 1-[3-Chloro-5-[4-(4-fluoro-phenyl)-pentyl]-4-methoxy-2-methyl-6-(2-pyridin-2-yl-ethoxy)-phenyl]-ethanone]
- pEC50: > 7.30

SMILES: COc1cc(C)c(C(C)=O)c(O)c1OCCCc1ccccc1 [Example 33a, 1-(3-(3-(phenyl)propoxy)-2-hydroxy-4-methoxy-6-methylphenyl)ethanone, reference compound]
- pEC50: < 6.52

SMILES: COc1cc(C)c(C(C)=O)c(OCCN2CCOCC2)c1OCCCc1ccccc1 [Example 33b, 1-[4-Methoxy-6-methyl-2-(2-morpholin-4-yl-ethoxy)-3-(3-phenyl-propoxy)-phenyl]-ethanone]
- pEC50: 6.52 to 6.82

SMILES: COc1c(Cl)c(C)c(C(C)=O)c(OCCNC2CCCC2)c1OCCCc1ccccc1 [Example 34c, 1-[3-Chloro-6-(2-cyclopentylamino-ethoxy)-4-methoxy-2-methyl-5-(3-phenyl-propoxy)-phenyl]-ethanone]
- pEC50: 6.82 to 7.30

SMILES: COc1c(Cl)c(C)c(C(C)=O)c(OCCN2CC(F)(F)C2)c1OCCCc1ccccc1 [Example 35, 1-[3-Chloro-6-[2-(3,3-difluoro-azetidin-1-yl)-ethoxy]-4-methoxy-2-methyl-5-(3-phenyl-propoxy)-phenyl]-ethanone]
- pEC50: < 6.52

SMILES: COc1c(Cl)c(C)c(C(C)=O)c(OCCN2CCSCC2)c1OCCCc1ccccc1 [Example 36, 1-[3-Chloro-4-methoxy-2-methyl-5-(3-phenyl-propoxy)-6-(2-thiomorpholin-4-yl-ethoxy)-phenyl]-ethanone]
- pEC50: 6.82 to 7.30

SMILES: COc1c(Cl)c(C)c(C(C)=O)c(OCCN2CCC(F)(F)C2)c1OCCCc1ccccc1 [Example 37, 1-[3-Chloro-6-[2-(3,3-difluoro-pyrrolidin-1-yl)-ethoxy]-4-methoxy-2-methyl-5-(3-phenyl-propoxy)-phenyl]-ethanone]
- pEC50: 6.52 to 6.82

SMILES: COc1c(Cl)c(C)c(C(C)=O)c(OCCN2CC(O)C2)c1OCCCc1ccccc1 [Example 38, 1-[3-Chloro-6-[2-(3-hydroxy-azetidin-1-yl)-ethoxy]-4-methoxy-2-methyl-5-(3-phenyl-propoxy)-phenyl]-ethanone]
- pEC50: < 6.52

SMILES: COc1c(Cl)c(C)c(C(C)=O)c(OCCN2CC(=O)C2)c1OCCCc1ccccc1 [Example 39, 1-[3-Chloro-6-[2-(3-oxo-azetidin-1-yl)-ethoxy]-4-methoxy-2-methyl-5-(3-phenyl-propoxy)-phenyl]-ethanone]
- pEC50: < 6.52
